From PMC5515982, “Hair analysis for the biomonitoring of pesticide exposure: comparison with blood and urine in a rat model” (Archives of Toxicology, 2016)

How the values were obtained:
Type in all cases: in vivo, rat
[1] = Concentration of pesticides and metabolites in hair of rats after 90-day gavage exposure to a pesticide mixture; conditions: for Slope (linear fit), concentration in hair versus level of exposure: exposure expressed as mg/kg per day, concentration as pg/mg, detected values only
Method: (§1) Eight rats were randomly assigned to each of the experimental groups. A low-calorie water gel that contained the pesticides was administered via gavage to these rats three times per week for 90 days. The doses of the pesticides mixture used for exposure were 4, 10, 20, 40, 100, 200, and 400 µg/kg of body weight. The exposure range was set as follows: The lowest dose was the lowest level allowing the detection of pesticides in hair after a 90-day exposure, based on preliminary experiments not detailed here. Testing lower levels would not have been relevant because some compounds would not be detected anymore (analytical limitation). In addition, for some other compounds, no differences were detected in the current experiment between the lowest level of exposure and the background exposure of the controls. The highest dose was set according to toxicity of compounds, which corresponded to 1/20 of the lowest LD50 (carbofuran). The animals were weighed before each administration in order to adapt the amount of pesticide-containing mixture to the animals’ weight.
(§2) The animals were shaved before the experiment began to ensure that the hair collected at the end of the study accurately reflected the 90-day period of exposure. White and black hairs were collected separately, placed in aluminum foil, and stored at −20 °C until analysis. Blood was collected in EDTA tube from the tail vein, 3 h after oral administration on Day 90. Each sampling (500–750 µL) was immediately centrifuged at 5000×g for 3 min at room temperature, and plasma was separated and stored at −80 °C before analysis. For urine collection, the rats were placed in individual metabolic cages (Type 304 stainless steel, Techniplast, Zwaag, Netherlands) immediately after gavage for 24 h (from Day 88 to Day 89). The urine was collected in refrigerated tubes over a 24-h period and was weighed before storage at −20 °C.
(§3) Depending on the compounds, only parent pesticides, only metabolites, or both parent and metabolites were analyzed in the biological matrices. The chemicals were analyzed as previously described (Chata et al. [2016]; Hardy et al. [2015]). Despite the different nature of the biological matrices analyzed (liquid vs. solid), method protocols were developed to ensure similarity so they could be reliably compared to the information obtained from each matrix, thereby ensuring that differences were not likely attributable to analytical bias. […] Because analytical background noise was absent from the chromatograms because tandem mass spectrometry was used, the approaches based on background noise for determining the limit of detection (LOD) were not applicable. The LOD was therefore determined as the lowest concentration that was detected in the samples analyzed during this study. Selectivity was ensured by analyte retention time and by the quantification transition to confirmation transition ratio that had to be lower than the 20% difference from the ratio obtained with standard compounds. The LOD ranged from 0.02 pg/mg for β-endosulfan to 2.7 pg/mg for dichlorodiphenyltrichloroethane (p,p′-DDT) in hair, from 0.2 pg/mL for trifluralin to 13.6 ng/mL for 2-isopropoxyphenol (2-IPP) in urine, and from 2.4 pg/mL for β-endosulfan to 679 pg/mL for p,p′-DDT in plasma. Because the analysis of parent pesticides and metabolites was conducted on the same hair sample, the addition of parent organophosphate isotope-labeled analog standards was not possible because their degradation into non-labeled dialkyl phosphate (DAP) during the analytical procedure would have hindered the analysis of DAP due to exposure. In hair, only organophosphate metabolites (not parents) were therefore quantified, and only qualitative results were obtained for parents.
(§4) The association between the level of exposure and the analyte concentration in the matrix (i.e., hair, urine, and plasma) was assessed by the Pearson product-moment correlation coefficient (R Pearson). […]

[2] = Concentration of pesticides and metabolites in 24-h urine of rats after 90-day gavage exposure to a pesticide mixture; conditions: for Slope (linear fit), concentration in urine versus level of exposure: exposure expressed as mg/kg per day, concentration as ng/mL, detected values only; for Concentration range in urine (detection): ND = not detected, whatever the level of exposure
Method: as §1, §2, §3, §4

[3] = Concentration of pesticides and metabolites in plasma of rats after 90-day gavage exposure to a pesticide mixture; conditions: for Slope (linear fit), concentration in plasma versus level of exposure: exposure expressed as mg/kg per day, concentration as ng/mL, detected values only; for Concentration range in plasma (detection): ND = not detected, whatever the level of exposure
Method: as §1, §2, §3, §4

[4] = Influence of hair pigmentation: concentration in white hair versus pigmented hair; conditions: slope close to 1 = poor influence of pigmentation
Method: as §2
The influence of hair pigmentation on pesticide incorporation was assessed by comparing the concentration detected in white hair versus pigmented hair which were collected and analyzed separately from each animal. […] For the majority of the chemicals tested during the current study, pigmentation seemed to have a very limited effect on the concentration in hair, and only few compounds seemed to be pigmentation sensitive.

| SMILES | Slope (linear fit), concentration in hair versus level of exposure [1] | Slope (linear fit), concentration in urine versus level of exposure [2] | Slope (linear fit), concentration in plasma versus level of exposure [3] | Slope, concentration in white hair versus pigmented hair [4] | also measured |
| --- | --- | --- | --- | --- | --- |
| CC(C)Oc1ccccc1O [2-IPP, 2-isopropoxyphenol] | 26.3 | 1.0 E + 06 | 10.4 | 0.692 | – |
| O=C(O)c1cccc(Oc2ccccc2)c1 [3-PBA, 3-phenoxybenzoic acid] | 7.08 | 1.5 E + 05 | 422 | 1.070 | – |
| CC1(C)Cc2cccc(O)c2O1 [Carbofuran phenol] | 35.10 | 1.0 E + 06 | 1.73 | 1.109 | – |
| CC1(C)C(C=C(Cl)Cl)C1C(=O)O (centres unmarked) [Cl2CA, 3-(2,2-dichlorovinyl)-2,2-dimethylcyclopropane-1-carboxylic acid] | 49.20 | 1.0 E + 06 | 139 | 0.498 | – |
| CC1(C)C(C=C(Cl)C(F)(F)F)C1C(=O)O (centres unmarked) [ClCF3CA, 3-(2-chloro-3,3,3-trifluoro-1-propenyl)-2,2-dimethylcyclopropane carboxylic acid] | 5.22 | 1.6 E + 05 | 9.79 | 0.220 | – |
| CC1(C)C(C=C(Cl)Cl)C1C(=O)OC(C#N)c1cccc(Oc2ccccc2)c1 (centres unmarked) [Cypermethrin] | – | – | 10.1 | 0.495 | Exposure level from which detected in hair [1]: 200 µg/kg; Exposure level from which detected in plasma [3]: 10 µg/kg |
| CCOP(O)(=S)OCC [DETP, diethylthiophosphate] | 10.47 | 9.9 E + 05 | 3.26 | 0.608 | – |
| CCOP(=S)(OCC)Oc1cc(C)nc(C(C)C)n1 [Diazinon] | – | – | – | – | Concentration range in plasma (detection) [3]: not detected |
| ClC1=C(Cl)[C@]2(Cl)[C@@H]3[C@@H]4C[C@@H]([C@H]5O[C@@H]45)[C@@H]3[C@@]1(Cl)C2(Cl)Cl [Dieldrin] | 427.8 | 2 069 | 305 | 1.000 | – |
| O=C(Nc1ccc(F)cc1F)c1cccnc1Oc1cccc(C(F)(F)F)c1 [Diflufenican] | 35.94 | 99 | 15.2 | 0.937 | Exposure level from which detected in urine [2]: 20 µg/kg |
| N#Cc1nn(-c2c(Cl)cc(C(F)(F)F)cc2Cl)c(N)c1S(=O)(=O)C(F)(F)F [Fipronil sulfone] | 772 | 10 650 | 976 | 1.114 | – |
| N#Cc1nn(-c2c(Cl)cc(C(F)(F)F)cc2Cl)c(N)c1[S+]([O-])C(F)(F)F (centres unmarked) [Fipronil] | 31.5 | 2 016 | – | 1.017 | Exposure level from which detected in urine [2]: 10 µg/kg |
| CC(C)Oc1cc(-n2nc(C(C)(C)C)oc2=O)c(Cl)cc1Cl [Oxadiazon] | 11.45 | – | 38.5 | 0.860 | Concentration range in urine (detection) [2]: not detected |
| Oc1c(Cl)c(Cl)c(Cl)c(Cl)c1Cl [Pentachlorophenol] | 169.0 | 82 841 | 2039 | 0.705 | – |
| CC1(C)C(C=C(Cl)Cl)C1C(=O)OCc1cccc(Oc2ccccc2)c1 (centres unmarked) [Permethrin] | – | – | 1.04 | – | Exposure level from which detected in plasma [3]: 100 µg/kg |
| CCCC1COC(Cn2cncn2)(c2ccc(Cl)cc2Cl)O1 (centres unmarked) [Propiconazole] | 6.47 | – | – | 0.825 | Concentration range in urine (detection) [2]: not detected; Concentration range in plasma (detection) [3]: not detected |
| Oc1nc(Cl)c(Cl)cc1Cl [TCPy, 3,5,6-trichloro-2-pyridinol] | 85.6 | 2.5 E + 06 | 109 | 0.435 | – |
| CCCN(CCC)c1c([N+](=O)[O-])cc(C(F)(F)F)cc1[N+](=O)[O-] [Trifluralin] | 1.107 | 4 | 1.57 | 0.688 | Slope (linear fit), concentration in hair versus level of exposure ([1]; listed as trifluralin): 1.11 |
| Clc1ccc(C(c2ccc(Cl)cc2)C(Cl)Cl)cc1 [p,p′-DDD, p,p′-dichlorodiphenyldichloroethane] | 24.0 | – | 13.1 | 0.673 | Exposure level from which detected in hair [1]: 40 µg/kg per day; Concentration range in urine (detection) [2]: not detected; Exposure level from which detected in plasma [3]: 40 µg/kg |
| ClC(Cl)=C(c1ccc(Cl)cc1)c1ccc(Cl)cc1 [p,p′-DDE, p,p′-dichlorodiphenyldichloroethylene] | 273.5 | – | 289 | 1.287 | Exposure level from which detected in urine [2]: 200 µg/kg |
| Clc1ccc(C(c2ccc(Cl)cc2)C(Cl)(Cl)Cl)cc1 [p,p′-DDT, dichlorodiphenyltrichloroethane] | 184.7 | – | 175 | 0.876 | Exposure level from which detected in hair [1]: 20 µg/kg per day; Exposure level from which detected in urine [2]: 200 µg/kg |
| O=S1OC[C@@H]2[C@H](CO1)[C@]1(Cl)C(Cl)=C(Cl)[C@]2(Cl)C1(Cl)Cl (stereo partly drawn) [β-Endosulfan, β-endosulfan] | 2.71 | – | 1.50 | 0.965 | Concentration range in urine (detection) [2]: not detected |
| CC1(C)C(/C=C(\Cl)C(F)(F)F)C1C(=O)OC(C#N)c1cccc(Oc2ccccc2)c1 (centres unmarked) [λ-Cyhalothrin] | 5.050 | – | 116 | 1.079 | Exposure level from which detected in hair [1]: 20 µg/kg; Concentration in plasma relative to cypermethrin ([3]; at equal level of exposure): approximately 10 times; Concentration in plasma relative to permethrin ([3]; at equal level of exposure): approximately 100 times; Exposure level from which detected in plasma [3]: 4 µg/kg |
